{"source": "patent US20230136600A1", "about": "“Method and device for screening antigen epitope polypeptide” (priority 2020, published 2023)", "key": {"[1]": {"test_system": "novel coronavirus (live coronavirus), vero cells", "assay": "In-vitro live virus neutralization experiment with serum of immunized mice (CPE method)", "format": "in vivo, SARS-CoV-2", "details": "Embodiment I: single peptide 100 μg + MF59 at Day 0, 14, 28, Balb/c mice, serum Day 35"}, "Balb/c mice": {"test_system": "Balb/c mice", "assay": "Polypeptide chip-based vaccine immunogenicity scoring system", "format": "in vivo", "set-up": "key to A2: whether the 95 percentile of the last sampling is increased compared with the end point: Y = rise; N = no rise", "details": "for A: 95 percentile grouping number score / B: Mouse performance score: total score = 5"}, "[2]": {"details": "Embodiment III, polypeptide-KLH"}, "[3]": {"details": "Embodiment III, polypeptide-KLH, Mix1-10"}, "[4]": {"details": "Embodiment III, polypeptide-KLH, value of the whole mix"}, "[5]": {"details": "adjuvant AddaVax, 7 peptides co-immunized in mice"}, "[6]": {"details": "adjuvant Adju-Phos, 7 peptides co-immunized in mice"}, "[7]": {"details": "adjuvant Alhydrogel, 7 peptides co-immunized in mice"}, "[8]": {"details": "adjuvant Imjet Alumn, 7 peptides co-immunized in mice"}, "[9]": {"details": "adjuvant MA103A, 7 peptides co-immunized in mice"}, "[10]": {"details": "adjuvant MA103B, 7 peptides co-immunized in mice"}}, "data": [{"sequence": "VYDPLQPEL (SARS-CoV-2) [SEQ ID NO:34]", "values": [{"measurement": "Neutralizing antibody positive rate (%)", "setting": "[1]", "result": 20, "unit": "%"}, {"measurement": "A2: whether the 95 percentile of the last sampling is increased compared with the end point", "setting": "Balb/c mice; Embodiment II, Combination 1", "result": "N"}, {"measurement": "B1: D 0-D 14 95 percentile rise in the number of mice", "setting": "Balb/c mice; Embodiment II, Combination 1", "result": 5}, {"measurement": "B2: D 0-D 21 95 percentile rise in the number of mice", "setting": "Balb/c mice; Embodiment II, Combination 1", "result": 0}, {"measurement": "B3: D 14-D 21 95 percentile rise in the number of mice", "setting": "Balb/c mice; Embodiment II, Combination 1", "result": 0}, {"measurement": "B4: D 21-D 28 95 percentile rise in the number of mice", "setting": "Balb/c mice; Embodiment II, Combination 1", "result": 1}, {"measurement": "Total single peptide", "setting": "Balb/c mice; Embodiment II, Combination 1, A*3 + B*2 + C*1", "result": 18.9}, {"measurement": "A: 95 percentile grouping number score", "setting": "Balb/c mice; Embodiment II, Combination 1", "result": 5}, {"measurement": "B: Mouse performance score", "setting": "Balb/c mice; Embodiment II, Combination 1", "result": 1.7}, {"measurement": "A1: difference between a highest median and a D 0 median (95 percentile)", "setting": "Balb/c mice; Embodiment II, mice immunized with Combination 1", "result": 0.21}, {"measurement": "B1: D 0-D 14 95 percentile rise in the number of mice", "setting": "Balb/c mice; [2]", "result": 3}, {"measurement": "B2: D 0-D 21 95 percentile rise in the number of mice", "setting": "Balb/c mice; [2]", "result": 3}, {"measurement": "B3: D 14-D 21 95 percentile rise in the number of mice", "setting": "Balb/c mice; [2]", "result": 1}, {"measurement": "B4: D 21-D 28 95 percentile rise in the number of mice", "setting": "Balb/c mice; [2]", "result": 0}, {"measurement": "A1: difference between a highest median and a D 0 median (95 percentile)", "setting": "Balb/c mice; [3]", "result": 0.08}, {"measurement": "A2: whether the 95 percentile of the last sampling is increased compared with the end point", "setting": "Balb/c mice; [3]", "result": "N"}, {"measurement": "Total single peptide", "setting": "Balb/c mice; Embodiment III, polypeptide-KLH, A*3 + B*2 + C*1", "result": 13.4}, {"measurement": "A: 95 percentile grouping number score", "setting": "Balb/c mice; [2]", "result": 3}, {"measurement": "B: Mouse performance score", "setting": "Balb/c mice; [2]", "result": 1.7}, {"measurement": "C1: #A timing-sequence response peptide fragment set", "setting": "Balb/c mice; [4]", "result": 823}, {"measurement": "C2: #B vaccine specificity peptide fragment set", "setting": "Balb/c mice; [4]", "result": 398}, {"measurement": "C3: Intersection of A and B", "setting": "Balb/c mice; [4]", "result": 7}, {"measurement": "C4: Percentage of the intersection in set B", "setting": "Balb/c mice; [4]", "result": 1.759}, {"measurement": "C: Timing-sequence response and specificity score", "setting": "Balb/c mice; [4]", "result": 1}, {"measurement": "1) 95 percentile grouping number A", "setting": "Balb/c mice; [5]", "result": 3.5}, {"measurement": "1) 95 percentile grouping number A1", "setting": "Balb/c mice; [5]", "result": 0.05}, {"measurement": "2) Mouse performance B", "setting": "Balb/c mice; [5]", "result": 2.4}, {"measurement": "2) Mouse performance B1", "setting": "Balb/c mice; [5]", "result": 4}, {"measurement": "2) Mouse performance B2", "setting": "Balb/c mice; [5]", "result": 4}, {"measurement": "2) Mouse performance B3", "setting": "Balb/c mice; [5]", "result": 1}, {"measurement": "3) Timing-sequence response and specificity C", "setting": "Balb/c mice; [5]", "result": 0}, {"measurement": "3) Timing-sequence response and specificity C1", "setting": "Balb/c mice; [5]", "result": 237}, {"measurement": "3) Timing-sequence response and specificity C2", "setting": "Balb/c mice; [5]", "result": 1244}, {"measurement": "3) Timing-sequence response and specificity C3", "setting": "Balb/c mice; [5]", "result": 0}, {"measurement": "3) Timing-sequence response and specificity C4", "setting": "Balb/c mice; [5]", "result": 0.000}, {"measurement": "Total single peptide", "setting": "Balb/c mice; [5]", "result": 15.3}, {"measurement": "1) 95 percentile grouping number A", "setting": "Balb/c mice; [6]", "result": 5}, {"measurement": "1) 95 percentile grouping number A1", "setting": "Balb/c mice; [6]", "result": 0.08}, {"measurement": "2) Mouse performance B", "setting": "Balb/c mice; [6]", "result": 2.5}, {"measurement": "2) Mouse performance B1", "setting": "Balb/c mice; [6]", "result": 3}, {"measurement": "2) Mouse performance B2", "setting": "Balb/c mice; [6]", "result": 4}, {"measurement": "2) Mouse performance B3", "setting": "Balb/c mice; [6]", "result": 2}, {"measurement": "3) Timing-sequence response and specificity C", "setting": "Balb/c mice; [6]", "result": 0}, {"measurement": "3) Timing-sequence response and specificity C1", "setting": "Balb/c mice; [6]", "result": 203}, {"measurement": "3) Timing-sequence response and specificity C2", "setting": "Balb/c mice; [6]", "result": 1244}, {"measurement": "3) Timing-sequence response and specificity C3", "setting": "Balb/c mice; [6]", "result": 0}, {"measurement": "3) Timing-sequence response and specificity C4", "setting": "Balb/c mice; [6]", "result": 0.000}, {"measurement": "Total single peptide", "setting": "Balb/c mice; [6]", "result": 20}, {"measurement": "1) 95 percentile grouping number A", "setting": "Balb/c mice; [7]", "result": 5}, {"measurement": "1) 95 percentile grouping number A1", "setting": "Balb/c mice; [7]", "result": 0.06}, {"measurement": "2) Mouse performance B", "setting": "Balb/c mice; [7]", "result": 2.6}, {"measurement": "2) Mouse performance B1", "setting": "Balb/c mice; [7]", "result": 4}, {"measurement": "2) Mouse performance B2", "setting": "Balb/c mice; [7]", "result": 3}, {"measurement": "2) Mouse performance B3", "setting": "Balb/c mice; [7]", "result": 2}, {"measurement": "3) Timing-sequence response and specificity C", "setting": "Balb/c mice; [7]", "result": 1}, {"measurement": "3) Timing-sequence response and specificity C1", "setting": "Balb/c mice; [7]", "result": 123}, {"measurement": "3) Timing-sequence response and specificity C2", "setting": "Balb/c mice; [7]", "result": 1244}, {"measurement": "3) Timing-sequence response and specificity C3", "setting": "Balb/c mice; [7]", "result": 2}, {"measurement": "3) Timing-sequence response and specificity C4", "setting": "Balb/c mice; [7]", "result": 0.161}, {"measurement": "Total single peptide", "setting": "Balb/c mice; [7]", "result": 20.7}, {"measurement": "1) 95 percentile grouping number A", "setting": "Balb/c mice; [8]", "result": 5}, {"measurement": "1) 95 percentile grouping number A1", "setting": "Balb/c mice; [8]", "result": 0.11}, {"measurement": "2) Mouse performance B", "setting": "Balb/c mice; [8]", "result": 2.1}, {"measurement": "2) Mouse performance B1", "setting": "Balb/c mice; [8]", "result": 5}, {"measurement": "2) Mouse performance B2", "setting": "Balb/c mice; [8]", "result": 3}, {"measurement": "2) Mouse performance B3", "setting": "Balb/c mice; [8]", "result": 0}, {"measurement": "3) Timing-sequence response and specificity C", "setting": "Balb/c mice; [8]", "result": 1}, {"measurement": "3) Timing-sequence response and specificity C1", "setting": "Balb/c mice; [8]", "result": 100}, {"measurement": "3) Timing-sequence response and specificity C2", "setting": "Balb/c mice; [8]", "result": 1244}, {"measurement": "3) Timing-sequence response and specificity C3", "setting": "Balb/c mice; [8]", "result": 3}, {"measurement": "3) Timing-sequence response and specificity C4", "setting": "Balb/c mice; [8]", "result": 0.241}, {"measurement": "Total single peptide", "setting": "Balb/c mice; [8]", "result": 19.7}, {"measurement": "1) 95 percentile grouping number A", "setting": "Balb/c mice; [9]", "result": 5}, {"measurement": "1) 95 percentile grouping number A1", "setting": "Balb/c mice; [9]", "result": 0.115}, {"measurement": "2) Mouse performance B", "setting": "Balb/c mice; [9]", "result": 2.5}, {"measurement": "2) Mouse performance B1", "setting": "Balb/c mice; [9]", "result": 5}, {"measurement": "2) Mouse performance B2", "setting": "Balb/c mice; [9]", "result": 5}, {"measurement": "2) Mouse performance B3", "setting": "Balb/c mice; [9]", "result": 0}, {"measurement": "3) Timing-sequence response and specificity C", "setting": "Balb/c mice; [9]", "result": 1}, {"measurement": "3) Timing-sequence response and specificity C1", "setting": "Balb/c mice; [9]", "result": 260}, {"measurement": "3) Timing-sequence response and specificity C2", "setting": "Balb/c mice; [9]", "result": 1244}, {"measurement": "3) Timing-sequence response and specificity C3", "setting": "Balb/c mice; [9]", "result": 3}, {"measurement": "3) Timing-sequence response and specificity C4", "setting": "Balb/c mice; [9]", "result": 0.241}, {"measurement": "Total single peptide", "setting": "Balb/c mice; [9]", "result": 20.5}, {"measurement": "1) 95 percentile grouping number A", "setting": "Balb/c mice; [10]", "result": 5}, {"measurement": "1) 95 percentile grouping number A1", "setting": "Balb/c mice; [10]", "result": 0.095}, {"measurement": "2) Mouse performance B", "setting": "Balb/c mice; [10]", "result": 4.2}, {"measurement": "2) Mouse performance B1", "setting": "Balb/c mice; [10]", "result": 4}, {"measurement": "2) Mouse performance B2", "setting": "Balb/c mice; [10]", "result": 5}, {"measurement": "2) Mouse performance B3", "setting": "Balb/c mice; [10]", "result": 5}, {"measurement": "3) Timing-sequence response and specificity C", "setting": "Balb/c mice; [10]", "result": 0}, {"measurement": "3) Timing-sequence response and specificity C1", "setting": "Balb/c mice; [10]", "result": 153}, {"measurement": "3) Timing-sequence response and specificity C2", "setting": "Balb/c mice; [10]", "result": 1244}, {"measurement": "3) Timing-sequence response and specificity C3", "setting": "Balb/c mice; [10]", "result": 0}, {"measurement": "3) Timing-sequence response and specificity C4", "setting": "Balb/c mice; [10]", "result": 0.000}, {"measurement": "Total single peptide", "setting": "Balb/c mice; [10]", "result": 23.4}]}]}
